≈ marks a conversion by molar mass, not a printed value.
Experiment: Thermodynamic solubility in simulated intestinal fluid (FaSSIF)
Assay type: physicochemical
Conditions: simulated intestinal fluid (FaSSIF), thermodynamic from solid, 37° C., 1000 rpm
Description: 50 mM of phosphate buffer, pH=7.4:0.39 g of NaH2PO4·2H2O, 1.4025 g of Na2HPO4 were weighed, placed into an Erlenmeyer flask, dissolved with the addition of 240 ml of water, homogenously mixed, adjusted to pH 7.4 with 10 M NaOH solution, transferred into a 250 ml volumetric flask and diluted with water to the scale.
Simulated intestinal fluid FaSSIF: 54.76 mg of FaSSIF-V2 (Biorelevant, batch. V2FAS-0619-A, lot. V2FAS01) was weighed, and added to 15 ml of buffer, and after dissolution, the solution was made up to 30 ml and left to stand at room temperature for 1 hour for use.
Waters e2695 HPLC high performance liquid chromatography, Mettler XSE105 analytical balance.
Stock solution containing 10 mM of each test compound was formulated using DMSO, diluted into […] standard curve solution using diluent (ACN:PB buffer with a volume ratio of 50:50), and tested by HPLC to obtain a standard curve of concentration vs peak area of each test compound.
Thermodynamic solubility in simulated intestinal fluid (TS in FaSSIF). About 0.3 mg of each sample (test compound) was weighed, added into 1.5 mL of FaSSIF solution, two samples in parallel, shaken at 1000 rpm and 37° C. for 4 hours, and filtered, 1 mL of primary filtrate was discarded, then 400 μL of subsequent filtrate was taken, and tested by using a high performance liquid chromatograph (UV).

Compound | solubility thermodynamic at 4 h
Cc1onc(-c2ccc(F)cc2)c1COc1ccc(-c2nnc3n2CCS(=O)(=O)C3)cn1 [Compound 7, 3-(6-((3-(4-fluorophenyl)-5-methylisoxazol-4-yl)methoxy)pyridin-3-yl)-5,6-dihydro-8H-[1,2,4]triazolo[3,4-c][1,4]thiazine 7,7-dioxide] | 157 µg/mL (≈ 344 µM)
Cc1onc(-c2ccc(F)cc2)c1COc1ccc(-c2nnc3n2CCOC3)cn1 [Compound 17, 3-(6-((3-(4-fluorophenyl)-5-methylisoxazol-4-yl)methoxy)pyridin-3-yl)-5,6-dihydro-8H-[1,2,4]triazolo[3,4-c][1,4]oxazine] | 33.1 µg/mL (≈ 81.2 µM)
Cc1onc(-c2ccc(F)cc2)c1COc1cnc(-c2nnc3n2CCOCC3)cn1 [Compound 33, 3-(5-((3-(4-fluorophenyl)-5-methylisoxazol-4-yl)methoxy)pyrazin-2-yl)-5,6,8,9-tetrahydro-[1,2,4]triazolo[4,3-d][1,4]oxazepane] | 39.5 µg/mL (≈ 93.5 µM)

Further lines, results first:

solubility thermodynamic at 4 h | Compound
19.4 µg/mL (≈ 44.1 µM) | Cc1onc(-c2ccc(F)cc2)c1COc1ccc(N2CCN3CCNC(=O)C3C2)nn1 (centres unmarked) [Compound 10, 8-(6-((3-(4-fluorophenyl)-5-methylisoxazol-4-yl)methoxy)pyridazin-3-yl) hexahydro-2H-pyrazino[1,2-a]pyrazin-1 (6H)-one]
15.2 µg/mL (≈ 37.3 µM) | Cc1onc(-c2ccc(F)cc2)c1COc1cnc(-c2nnc3n2CCOC3)cn1 [Compound 19, 3-(5-((3-(4-fluorophenyl)-5-methylisoxazol-4-yl)methoxy)pyrazin-2-yl)-5,6-dihydro-8H-[1,2,4]triazolo[3,4-c][1,4]oxazine]
39.6 µg/mL (≈ 101 µM) | Cc1onc(-c2ccc(F)cc2)c1COc1cnc(-c2nnc3n2CCC3)cn1 [Compound 23, 4-(((5-(6,7-dihydro-5H-pyrrolo[2,1-c][1,2,4]triazol-3-yl)pyrazin-2-yl)oxy)methyl)-3-(4-fluorophenyl)-5-methylisoxazole]
60.2 µg/mL (≈ 143 µM) | Cc1onc(-c2ccc(F)cc2)c1COc1ccc(N2CCn3ccnc3C2=O)nn1 [Compound 37, 7-(6-((3-(4-fluorophenyl)-5-methylisoxazol-4-yl)methoxy)pyridazin-3-yl)-6,7-dihydroimidazo[1,2-a]pyrazin-8(5H)-one]

Same assay, conditions: simulated intestinal fluid FaSSIF, pH 7.4, thermodynamic from solid, 37° C., 1000 rpm

solubility thermodynamic at 4 h | Compound
18.3 µg/mL (≈ 43.3 µM) | Cc1onc(-c2ccc(F)cc2)c1COc1cnc(-c2nnc3n2CCCOC3)cn1 [Compound 24, 3-(5-((3-(4-fluorophenyl)-5-methylisoxazol-4-yl)methoxy)pyrazin-2-yl)-6,7-dihydro-5H,9H-[1,2,4]triazolo[3,4-c][1,4]oxazepane]

From US20250215016A1, “ISOXAZOLE-HETEROCYCLIC DERIVATIVE, PHARMACEUTICAL COMPOSITION AND USE” (SHANGHAI SIMR BIOTECHNOLOGY CO., LTD, priority 2022, published 2025)
